According to article PMC10718593, “Rational design, synthesis, molecular modeling, biological activity, and mechanism of action of polypharmacological norfloxacin hydroxamic acid derivatives” (RSC Medicinal Chemistry, 2023):
≈ marks a conversion by molar mass, not a printed value.

Test system: E. coli
Assay: microbe, parasite or virus in culture
Set-up: Minimal inhibitory concentration, bacterial growth inhibition
Conditions: Escherichia coli
Protocol: Minimal inhibitory concentrations (MICs) were determined against a panel of test strains comprising Gram-negative, Gram-positive, and mycobacteria, including a fluoroquinolone-resistant, clinical isolate of E. coli and an MRSA strain that is also resistant to norfloxacin and ciprofloxacin (Table 1).

## CCn1cc(C(=O)NO)c(=O)c2cc(F)c(N3CCN(CN4CCOCC4)CC3)cc21 [20b]
  MIC: 0.28 µM (≈ 0.121 µg/mL)

## CCCCCN1CCN(c2cc3c(cc2F)c(=O)c(C(=O)NO)cn3CC)CC1 [11d, 1-ethyl-6-fluoro-1,4-dihydro-N-hydroxy-7-(4-pentylpiperazin-1-yl)-4-oxoquinoline-3-carboxamide]
  MIC: 0.3 µM (≈ 0.121 µg/mL)

## CCn1cc(C(=O)NO)c(=O)c2cc(F)c(N3CCN(C)CC3)cc21 [11a]
  MIC: 0.18 µM (≈ 0.0627 µg/mL)

## CCn1cc(C(=O)NO)c(=O)c2cc(F)c(N3CCN(Cc4ccc(Cl)cc4)CC3)cc21 [11f]
  MIC: 1.08 µM (≈ 0.496 µg/mL)

## CCn1cc(C(=O)O)c(=O)c2cc(F)c(N3CCN(CNc4ccc([N+](=O)[O-])cc4)CC3)cc21 [compound 25, 25]
  MIC: 0.266 µM (≈ 0.125 µg/mL)

## CCn1cc(C(=O)O)c(=O)c2cc(F)c(N3CCN(CN4CCCCC4)CC3)cc21 [19a, 1-ethyl-6-fluoro-1,4-dihydro-4-oxo-7-(4-((piperidin-1-yl)methyl)piperazin-1-yl)quinoline-3-carboxylic acid]
  MIC: 0.3 µM (≈ 0.125 µg/mL)

## CCn1cc(C(=O)NO)c(=O)c2cc(F)c(N3CCN(CN4C(=O)CCC4=O)CC3)cc21 [23a, 1-ethyl-6-fluoro-1,4-dihydro-N-hydroxy-4-oxo-7-(4-((2,5-dioxopyrrolidin-1-yl)methyl)piperazin-1-yl)quinoline-3-carboxamide]
  MIC: 0.56 µM (≈ 0.249 µg/mL)
